Data set [1] concerns b-catenin transcription activity in brain endothelial cells of CCM3-ECKO mice. The experiment in a line: Immunostaining of brain sections of CCM3-ECKO mice (b-gal reporter, progenitor/EndMT markers, VE-cadherin). Format: in vivo, mouse. Particulars: dpn 9. The source says:
The CCM3-flox/flox mice were generated at TaconicArtemis (Koeln, Germany). Two P-lox sequences were inserted that flank exons 4 and 5 of the murine CCM3 gene, to produce a loss-of-function mutation after excision by Ore recombinase. These CCM3-flox/flox mice were bred with Cdh5(PAC)-CreERT2 mice (Wang et al, 2010) for tamoxifen-inducible endothelial-cell-specific expression of Ore-recombinase and CCM3 gene recombination. The CCM3-flox/flox-Cdh5(PAC)-CreERT2 mice were further bred with BAT-gal mice (Maretto et al, 2003) to monitor the activation of b-catenin transcription signaling, and with Rosa 26-Enhanced […] Fluorescent Protein (EYFP) (Rosa26EYFP) mice (Srinivas et al, 2001) to monitor the expression of Ore-recombinase through the expression of EYFP. Tamoxifen (Sigma) was dissolved in corn oil and 10% ethanol (at 10 mg/ml), and then diluted 1:5 in corn oil before single intragastric administration to dpn 1-2 pups (35 mg/kg body weight), as described in^14. The control (wild-type) mice included CCM3-flox/flox-Cdh5(PAC)-CreERT2-BAT-gal mice treated with the vehicle used to dissolve the tamoxifen (corn oil plus 2% ethanol), and CCM3^+/+-Cdh5(PAC)-CreERT2-BAT-gal mice treated with tamoxifen.
Brains and eyes from mice pups were fixed in 3% paraformaldehyde immediately after dissection, and this fixing was continued overnight at 4° C. The retinas were dissected from the eyes just before staining as the whole mount. Fixed brains were embedded in 4% low-melting-point agarose and sectioned along the sagittal axis ([…]) using a vibratome (1000 Plus, The Vibratome Company, St. Louis, Mo., US).
Brain sections and retinas were stained as floating samples in 12-well and 96-well plates, respectively. They were blocked overnight at 4° C. in 1% fish-skin gelatin with 0.5% Triton X100 and 5% donkey serum in phosphate-buffered saline (PBS) containing 0.01% thimerosal. The samples were incubated overnight at 4° C. with the primary antibodies diluted in 1% fish-skin gelatin with 0.25% Triton X100 in PBS containing 0.01% thimerosal. Following washing with 0.1% Triton X100 in PBS, the secondary antibodies were added for 4 h at room temperature in 1% fish-skin gelatin with 0.25% Triton X100 in PBS containing 0.01% thimerosal. The incubation with DAPI was in PBS for 4 h, which was followed by several washes in PBS, post-fixating with 3% paraformaldehyde for 5 min at room temperature, and further washes in PBS. The brain sections were mounted in Vectashield with DAPI, and the coverslips fixed with nail varnish; the retinas were mounted in Prolong gold with DAPI.
The following antibodies were used: anti-Pecam (hamster; MAB1398Z, Millipore); anti-b-galactosidase (chicken; ab9361, Abcam); anti-VE-cadherin (rat monoclonal; 550548, BD Biosciences); anti-VE-cadherin (goat; sc-6458, Santa Cruz); anti-active-b-catenin (mouse monoclonal clone 8E7) dephosphorylated on Ser37 and Thr41, Millipore); anti-total-b-catenin (mouse monoclonal; Cell Signaling); anti-S100a4 (rabbit; 07-2274, Millipore); anti-Klf4 (goat; AF3158, R&D); anti-CD44 (rat; 553131, BD Biosciences); anti-ID1 (rabbit; sc-488, Santa Cruz); anti-aSMA (mouse monoclonal; F3777, Sigma); anti-GFP (rabbit; A-6455, Invitrogen); anti-podocalyxin (goat; AF1556, R&D); anti-phospho-histone H3 (rabbit; ab51776, Millipore); anti-CCM3 (rabbit; Eurogentec); anti-p-Smad1 (rabbit; 9516, Cell Signaling); anti-endomucin (rabbit; sc-65495, Santa Cruz); anti-α-tubulin (mouse monoclonal; T9026, Sigma).

The test system of data set [2] is CCM3-knockout endothelial cell line. The experiment in a line: rtPCR of b-catenin target gene and progenitor/EndMT markers in CCM3-knockout endothelial cell line. The conditions noted are these: 48 h; 135 mM sulindac sulfide, 125 mM sulindac sulfone, 200 mM silibinin, 250 mM salinomycin. Format: cell-based, mouse. The protocol: In some experiments, endothelial cell lines from the lungs of CCM3-flox/flox mice (8-10 weeks old) were immortalized in culture through retroviral expression of polyoma middle T gene^60. […] These cells were then maintained in culture for up to 25 passages without detectable changes in the effects of this CCM3 ablation.
Drugs were added to confluent cells for 48 h before the indicated assays. The final concentrations used were: […] (all from Sigma-Aldrich). As all of these were dissolved in DMSO, control treatment (vehicle) was 0.1% DMSO final concentration, as for drug treatment.
RNA extraction was performed with RNeasy kits (74106; […]). The RNA (1 μg) was reverse transcribed with random hexamers (High Capacity cDNA Archive kits; Applied Biosystems). The cDNA was amplified with TaqMan gene expression assays (Applied Biosystems) using a 7900 HT thermocycler (ABI/Prism). For each sample, the expression levels were determined with the comparative threshold cycle (Ct) method, and normalized to the housekeeping genes encoding 18S and glyceraldehyde-3-phosphate dehydrogenase (GAPDH). For amplification, the following probes (Applied Biosystems) that have been validated to recognize the mouse transcripts in rtPCR were used: Axin2, Nkd1, Lef1, ccnd1, cMyc-Klf4, Ly6a, S100a4, Id1, Cdh2, Acta2, CD44. The probes to identify the CCM3 mRNA transcript were custom designed, as: forward, […] (SEQ ID No. 12); reverse, GCTCTGGCCGCTCAATCA (SEQ ID No. 13); reporter sequence, […] (SEQ ID No. 14).

The next data set deals with CCM3-ECKO mice. Put plainly: Bleeding and mortality in drug-treated CCM3-ECKO mice. Particulars: 30 mg/kg body weight intragastrically, daily. The protocol: Sulindac sulfide (Sigma) and sulindac sulfone (Sigma) were both dissolved in DMSO and further diluted 1:50 in corn oil. They were administered intragastrically, daily (30 mg/kg body weight), starting one day after the induction of recombination. The control mice were treated in parallel with vehicle only (corn oil plus 2% DMSO).

Entries after “also recorded” stand apart in the source; their conditions may differ.

With `CSc1ccc(/C=C2/C(C)=C(CC(=O)O)c3cc(F)ccc32)cc1` [sulindac sulfide, (Z)-5-Fluoro-2-methyl-1-[4-(methylthio)benzylidene]indene-3-acetic acid], the “expression of nuclear reporter gene b-gal in endothelial cells of brain vasculature” value in data set [1] (CCM3-ECKO BAT-gal pups) is “abolition; also recorded: inhibited”. Further, the “VE-cadherin localization at endothelial cell-cell junctions in brain vessels” value in data set [1] (CCM3-ECKO pups) is listed as “better localized at endothelial cell-cell junctions”. Further, in data set [1] (CCM3-ECKO pups, immunostaining), the “expression of b-catenin target genes / progenitor and EndMT markers (Klf4, S100a4, Id1) in brain endothelium” value is “strongly reduces; also recorded: inhibited”. Besides, the “inhibition of transcription of Axin2, Klf4 and S100a4 (rtPCR)” value in data set [2] is reported as “greatest inhibition; also recorded: most effective”. Moreover, in the data set on CCM3-ECKO mice, the “bleeding from vascular lesions or mortality versus vehicle-treated mice” value is “did not observe either increased bleeding from vascular lesions or mortality”.

The values above are taken from patent US20170027896A1, “METHODS AND COMPOSITIONS FOR THE TREATMENT OF VASCULAR MALFORMATION” (IFOM - FONDAZIONE ISTITUTO FIRC DI ONCOLOGIA MOLECOLARE, priority 2014, published 2017).
